Where two headings read alike, the source gives them in different places.
Assays:
[1] = system: patients with type 2 diabetes; details: human, in vivo
Procedure: Clinical trials as follows were performed with double-blind, parallel group trial on patients with type 2 diabetes.
Type 2 diabetic patients of at least 20 years old whose blood glucose could not be sufficiently controlled by a dietary therapy and who requires introduction of medication and has HbA1C of at least 6.5% and less than 8.5%.
(1) 5 mg tablet of mitiglinide calcium hydrate (hereafter also referred to as “KAD-1229”)
(2) placebo tablet of KAD-1229 5 mg tablet
(4) placebo tablet of KAD-1229 10 mg tablet
(5) 0.2 mg tablet of voglibose
(6) placebo tablet of voglibose 0.2 mg tablet
(Method of Administration)
A 0.2 mg tablet of voglibose was orally administered 3 times a day immediately before every meal (within 5 minutes before eating) for 16 weeks (an observation period: a non-blind trial period). Thereafter, investigational drugs distributed as Table 1 were orally administered 3 times a day immediately before every meal (within 5 minutes before eating) for 12 weeks (a treatment period: a double-blind trial period). Administration of the investigational drugs after meal was not allowed, and administration was not performed when the meal was not taken.
The following items were assessed during and after the period of administration.

Male Wistar rats = experiment: Oral sucrose tolerance test; format: in vivo, rat; details: in combination with voglibose, sucrose 2.5 g/kg, compared to nateglinide or repaglinide, FIG. 11
Procedure: Male Wistar rats purchased from Japan SLC, Inc. were used in this test.
An oral sucrose tolerance test was performed using 7-week-old rats.
The rats were fasted for at least 16 hours and received oral administration of 2.5 mL/kg of a prepared tested substance or a vehicle (0.5% CMC solution), followed by oral administration of 5 mL/kg of 0.5 g/mL sucrose solution (2.5 g/kg). Blood was drawn from a rat tail vein immediately before administration and 0.25 and 0.5 hours after loading. A plasma glucose concentration was measured using a Glucose CII-test Wako (Wako Pure Chemical Industries, Ltd.).
A dose of the tested substance was converted from a usual dose of each drug for a type 2 diabetic patient (mitiglinide: 10 mg, nateglinide: 120 mg, repaglinide: 1 mg). As for nateglinide, a converted value of 12 mg was changed to 20 mg to be set as a dose, considering an effect thereof.
An area under the plasma glucose concentration-time curve from a time before sucrose loading to 0.5 hours after sucrose loading (AUC0-0.5 hr) was set as an assessment item. Blood glucose AUC0-0.5 hr was calculated from plasma glucose concentrations with a trapezoidal rule using the area under the plasma glucose concentration-time curve.
Excel (Microsoft Corp.) and GraphPad Prism 3.0 (GraphPad Software Inc.) were used to aggregate and calculate data, to make diagrams and the like. […]

For `OCC(CO)N[C@H]1C[C@](O)(CO)[C@@H](O)[C@H](O)[C@H]1O` [Comparative Example 1, voglibose], the “Incidence rate of gastrointestinal disorders” value ([1]; 12 weeks) was 10.1% and the “Incidence rate of hypoglycemic symptoms” value ([1]; 12 weeks) was 1.1%.

For `O.O.O=C([O-])[C@H](CC(=O)N1C[C@H]2CCCC[C@H]2C1)Cc1ccccc1.O=C([O-])[C@H](CC(=O)N1C[C@H]2CCCC[C@H]2C1)Cc1ccccc1.[Ca+2]` [Comparative Example 2, mitiglinide calcium hydrate], the “blood glucose decreasing effect (blood glucose AUC0-0.5 hr)” value (Male Wistar rats) was “strong blood glucose decreasing effect within a very short time”, the “Incidence rate of gastrointestinal disorders” value [1] was 6.8% and the “Incidence rate of hypoglycemic symptoms” value [1] was 3.9%.
